These results are taken from patent publication US8895585B2, “Nicotinamide derivative or salt thereof” (FUJIFILM Corporation, priority 2010, dated 2014).

Like-named read-outs stand apart in the source and are kept apart here.

The target of experiment [1] is T1, glutathione S-transferase (GST)-fused full-length human Syk protein (Homo sapiens, UniProt P43405).
T1 construct: (GST)-fused full-length human Syk protein; GST (glutathione S-transferase); purchased Carna Biosciences
The experiment can be described thus: Syk enzyme assay. The class given is biochemical. Particulars: Syk enzyme assay, Test Example 1; read-out: IC50 of Syk-inhibitory activity. Put shortly: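 IC50 values come from a time-resolved FRET readout (615 and 665 nm) of substrate phosphorylation, measured after an EDTA stop and 1 h antibody binding. The kinase reaction ran 40 min at room temperature with 27 μM ATP and 0.4 μM biotin-peptide, following a 15 min compound preincubation with baculovirus-made GST-full-length human Syk.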

A further experiment relates to THP-1 cells. The experiment can be described thus: TNFα generation assay. The class given is cell-based, human. Particulars: Table 22, read-out: IC50 in TNFα generation assay. Put shortly: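 THP-1 cells differentiated to macrophage-like cells with 10 ng/ml IFN-γ for 2 days, preincubated with compound 30 min at room temperature, then cultured 7 h on plates coated with human IgG (10 μg/ml). Secreted TNFα measured by ELISA or AlphaLISA.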

[2] abbreviates: Homo sapiens, THP-1, THP-1 cells.

On to `CC[C@@H](Nc1nc(Nc2ccc3c(c2)c(C2CC2)nn3CC)c(C(N)=O)cc1F)[C@H](C)N` [Example 006-551, 6-(((2S,3R)-2-aminopentan-3-yl)amino)-2-((3-cyclopropyl-1-ethyl-1H-indazol-5-yl)amino)-5-fluoronicotinamide], for which the IC50 in experiment [1] was less than 10 nM; in the experiment with THP-1 cells (setting [2]), 130 to 200 nM.
The like results for `CCOc1ncc(Nc2nc(N[C@@H]3CCCC[C@@H]3N)c(F)cc2C(N)=O)cc1-n1ccnn1` [Example 006-496, 6-(((1R,2S)-2-aminocyclohexyl)amino)-2-((6-ethoxy-5-(1H-1,2,3-triazol-1-yl)pyridin-3-yl)amino)-5-fluoronicotinamide] were, in that order, less than 10 nM and 65 to 130 nM.
For `COc1ccc2cc(Nc3nc(N[C@@H](CN)CC(C)C)c(F)cc3C(N)=O)cnc2c1` [Example 006-176, (R)-6-((1-amino-4-methylpentan-2-yl)amino)-5-fluoro-2-((7-methoxyquinolin-3-yl)amino)nicotinamide], in that order: less than 10 nM and 65 to 130 nM.
`C[C@H](N)[C@@H](C)Nc1nc(Nc2ccc3ncccc3c2)c(C(N)=O)cc1F` (racemic) [Example 39-1, 6-(((2R,3S)-3-aminobutan-2-yl)amino)-5-fluoro-2-((quinolin-6-yl)amino)nicotinamide 6-(((2S,3R)-3-aminobutan-2-yl)amino)-5-fluoro-2-((quinolin-6-yl)amino)nicotinamide]: the IC50 in experiment [1] was less than 10 nM; in the experiment with THP-1 cells (setting [2]), less than 65 nM.
As to `NC(=O)c1cc(F)c(N[C@@H]2CCCC[C@@H]2N)nc1Nc1cncc2[nH]ccc12` (relative stereo) [Example 004-062], the IC50 in experiment [1] was less than 10 nM; with THP-1 cells (setting [2]), less than 65 nM.
For `NC(=O)c1cc(F)c(N[C@@H]2CCCC[C@@H]2N)nc1Nc1cnc2cccnc2c1` [Example 004-002], in that order: 10 to 50 nM and less than 65 nM.
Turning to “6-(((2R,3S)-3-aminobutan-2-yl)amino)-2- (3,5-dimethoxyphenyl)amino)-5- fluoronicotinamide 6-(((2S,3R)-3-aminobutan-2-yl)amino)-2- (3,5-dimethoxyphenyl)amino)-5- fluoronicotinamide [Example 006-107]”, the IC50 in experiment [1] is less than 10 nM; with THP-1 cells (THP-1 cells), less than 65 nM.
`Cc1cc(Nc2nc(N[C@@H]3CCCC[C@@H]3N)c(F)cc2C(N)=O)cnc1C1CC1` [Example 006-503, 6-(((1R,2S)-2-aminocyclohexyl)amino)-2-((6-cyclopropyl-5-methylpyridin-3-yl)amino)-5-fluoronicotinamide]: the values for the IC50 (in experiment [1]; in the experiment with THP-1 cells (setting [2])) were less than 10 nM and 65 to 130 nM, respectively.
With `NC(=O)c1cc(F)c(N[C@@H]2CCCC[C@@H]2N)nc1Nc1cnc2c(NCC3CC3)cccc2c1` [Example 004-134], the results for the IC50 (in experiment [1]; in the experiment on THP-1 cells (setting [2])) were 10 to 50 nM and 130 to 200 nM, respectively.
As to `NC(=O)c1cc(F)c(N[C@@H]2CCCC[C@@H]2N)nc1Nc1cncc(-c2cnco2)c1` (relative stereo) [Example 004-118, 6-(cis-2-aminocyclohexylamino)-5-fluoro-2-((5-(oxazol-5-yl)pyridin-3-yl)amino)-nicotinamide], the results for the IC50 (in experiment [1]; with THP-1 cells (setting [2])) were less than 10 nM and 65 to 130 nM, respectively.
The like results for `CC[C@@H](Nc1nc(Nc2cncc(-c3ccc(OC)cc3F)c2)c(C(N)=O)cc1F)[C@H](C)N` [Example 006-279, 6-(((2S,3R)-2-aminopentan-3-yl)amino)-5-fluoro-2-((5-(2-fluoro-4-methoxyphenyl)pyridin-3-yl)amino)nicotinamide] were, in that order, less than 10 nM and 65 to 130 nM.
For `CC[C@@H](Nc1nc(Nc2ccnc(-c3cccc(OC)c3)c2)c(C(N)=O)cc1F)[C@H](C)N` [Example 006-330, 6-(((2S,3R)-2-aminopentan-3-yl)amino)-5-fluoro-2-((2-(3-methoxyphenyl)pyridin-4-yl)amino)nicotinamide], the IC50 in experiment [1] was less than 10 nM; in the experiment on THP-1 cells (setting [2]) it was less than 65 nM.
